SMILES strings stand for the structures.

The values that follow come from patent publication US11977086B2, “Biomarker detection from breath samples” (Hound Labs, Inc., priority 2019, dated 2024).

The nature of data set [1]: THC in breath after smoking, samples collected with a Hound Labs device and analyzed by mass spectrometry. The format is in vivo, human.
The conditions of data set [2]: pH>8; cited from earlier work.
The conditions of data set [3]: compared with THC; cited from earlier work.

`CCCCCc1cc(O)c2c(c1)OC(C)(C)[C@@H]1CCC(C)=C[C@@H]21` [THC, tetrahydrocannabinol]: the “measured amount of THC in breath sample indicative of recent usage” value in data set [1] (breath sample of 0.5 liters, usage within the three hours prior to collection) was 1-10 picograms (pg). In addition, in data set [1] (chronic or frequent smokers who have not smoked for several hours), the “baseline breath THC, maximum” value is on record as not above 12 pg/5 L breath. The “maximum baseline breath THC per liter” value in data set [1] (chronic users, 12 pg/5 L converted to per liter) is not above 2.4 pg/L. For the same compound, the “time THC is detected in breath after smoking” value in data set [1] (on average, 430 tests, smoking indoors or outdoors, mass spectrometry) fell in the range of 2 to 3 h. The “solubility versus pH” value in data set [2] is “higher solubility”.
In the case of `CCCCCc1cc2c(c(O)c1C(=O)O)[C@@H]1C=C(C)CC[C@H]1C(C)(C)O2` [THCA], the resistance to oxidation result in data set [3] was “higher resistance to oxidation”.
